In patent US11786457B2, “Peritumoral and intratumoral materials for cancer therapy” (President and Fellows of Harvard College, priority 2015, dated 2023):

Legend:
[1] = system: human lung cancer and breast cancer; conditions: PNAS 2012 109 (24) 9623-9628; cited from earlier work
CD137 = CD137 (Homo sapiens, UniProt Q07011); conditions: several clinical trials, Ascierto et al., 2010; cited from earlier work
immune cells = experiment: Click alginate cryogel with cytokines/chemokines placed under the skin, screened for immune cell accumulation; assay type: in vivo; conditions: Cryoclick gels
Excerpt: FIG. 12 is a series of photographs showing immune cell accumulation using GM-CSF—DC growth/differentiation factor in the device. FIGS. 12-15 show data using Cryoclick gels. Using a click alginate cryogel, a number of cytokines and chemokines were placed under the skin and screened for resulting activity in terms of immune cell accumulation.

[2] = system: human embryonic kidney (HEK) toll-like receptor-3 (TLR3) cells; experiment: Bioactivity of poly I:C released from CryogelMA on HEK TLR3 cells; assay type: cell-based; conditions: in vitro, supernatants over several days, absorbance
Excerpt: FIG. 8 is a line graph showing CryogelMA poly I:C release and bioactivity. […] Doing this in the tumor microenvironment stimulates maturation of recruited antigen-presenting cells (APCs) and results in antitumor immunity.

Sequence of CD137 (Q07011 24-255): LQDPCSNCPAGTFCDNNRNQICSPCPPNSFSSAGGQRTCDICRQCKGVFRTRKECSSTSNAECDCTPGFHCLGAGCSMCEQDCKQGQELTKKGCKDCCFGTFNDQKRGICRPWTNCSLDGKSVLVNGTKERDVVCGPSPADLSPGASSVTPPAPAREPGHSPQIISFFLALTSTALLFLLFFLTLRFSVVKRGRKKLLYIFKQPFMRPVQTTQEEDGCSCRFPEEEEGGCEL

For CN(CC(=O)N(Cc1ccc(C2CCCCC2)cc1)c1ccc(C(=O)O)c(O)c1)S(=O)(=O)c1c(F)c(F)c(F)c(F)c1F [BP-1-102], the “activity against tumors in animals” value [1] is given as “active”.
With COc1cccc2c1C(=O)c1c(O)c3c(c(O)c1C2=O)C[C@@](O)(C(=O)CO)C[C@@H]3O[C@H]1C[C@H](N)[C@H](O)[C@H](C)O1 [doxorubicin] the “cell death at the tumor close to the scaffold border” value (tumor cells; day 3 after peritumoral injection, cleaved-caspase 3 staining) was “local cell death is induced” and the “effect on surrounding normal tissue” value (tumor cells; local delivery from the gels, FIG. 22) was “much less affected”.
In the case of BMS-66513: anti-CD137 antibody, the clinical response (CD137) is listed as “partial remissions in disease” and the clinical toxicity (CD137) is listed as “liver toxicity”.
For “CCL20: Chemokine (C-C motif) ligand 20, DC chemokine”, the “immune cell accumulation at gel placed under the skin” value (immune cells) was “bright DC staining at gel periphery”.
For “IL-15: interleukin-15, T cell/NK cell survival factor”, the “immune cell accumulation at gel placed under the skin” value (immune cells) was “accumulation of CD4 and CD8 T cells in the skin”.
For “polyinosine-polycytidylic acid [poly I:C]”, the “response of HEK TLR3 cells to supernatants” value [2] was “produce a response measured by absorbance”.
